Drawing on PubChem BioAssay (NCI), this text covers GI50 and TGI for 10 compounds.

Among the test systems are ACHN renal; IGROV1 ovarian; HT29 colon; OVCAR-5 ovarian; COLO 205 colon; OVCAR-3 ovarian; SN12C renal; DU-145 prostate; M14 melanoma; A498 renal.
Holding throughout (assay): DTP human tumour cell line panel, 48 h

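Step 1: Grow cells in 96-well plates. Step 2: Expose to compound for 48 hours at 5 concentrations. Step 3: Interpolate endpoints linearly; if unreached, use highest concentration. GI50 marks 50% less growth. TGI: concentration producing complete growth inhibition.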 A value given as a limit tells only on which side of the number the result lay.

One may read the GI50 as the concentration giving 50% growth inhibition. What is called TGI is the concentration giving total growth inhibition. For `COc1ccc2nc3cc(Cl)ccc3c(Nc3cc(CN4CCCC4)c(O)c(CN4CCCC4)c3)c2n1`, the GI50 with ACHN renal is 1.69 µM; in the experiment on IGROV1 ovarian it was 2.51 µM; in the experiment on HT29 colon, 1.42 µM; with OVCAR-5 ovarian, 2.66 µM; with COLO 205 colon it was 1.18 µM; in the experiment on OVCAR-3 ovarian it was 3.07 µM. Also, the GI50 was 1.35 µM with SN12C renal, 2.43 µM in the experiment on DU-145 prostate and 1.62 µM with M14 melanoma. Also, the TGI with ACHN renal is 10.3 µM; in the experiment on IGROV1 ovarian, 13.6 µM; with HT29 colon, 10.5 µM; in the experiment with OVCAR-5 ovarian, 11.9 µM; in the experiment on COLO 205 colon, 2.48 µM; in the experiment with OVCAR-3 ovarian, 14.7 µM. In addition, the TGI amounted to 10.8 µM in the experiment with SN12C renal, 13.6 µM with DU-145 prostate and 2.97 µM in the experiment with M14 melanoma.

Regarding `CCCCn1c(=O)c(/C=C/C(=O)/C=C/c2cc3ccccc3n(CCCC)c2=O)cc2ccccc21`, the GI50 with ACHN renal is 1.7 µM; in the experiment with IGROV1 ovarian, 1.46 µM; in the experiment with HT29 colon, 0.316 µM; in the experiment on OVCAR-5 ovarian, 1.96 µM; in the experiment with COLO 205 colon, 1.41 µM; in the experiment on OVCAR-3 ovarian, 1.21 µM. Moreover, the GI50 is 2.21 µM in the experiment with SN12C renal and 1.47 µM in the experiment with DU-145 prostate. Besides, the TGI in the experiment on ACHN renal worked out at 3.07 µM; in the experiment with IGROV1 ovarian, 3.42 µM; in the experiment with HT29 colon it was 0.922 µM; in the experiment on OVCAR-5 ovarian it was 3.76 µM; in the experiment with COLO 205 colon, 3.16 µM; with OVCAR-3 ovarian it was 2.47 µM. Further, the TGI worked out at 5.2 µM with SN12C renal and 2.78 µM in the experiment with DU-145 prostate.

Turning to `CCN(Cc1c(F)cccc1Cl)c1ccc(CO)c(Cl)c1`, the GI50 in the experiment with A498 renal is under 0.0146 µM; in the experiment with ACHN renal, 15.1 µM; in the experiment on HT29 colon it was 0.668 µM; in the experiment with COLO 205 colon, 0.694 µM; in the experiment with OVCAR-3 ovarian it was under 0.034 µM; with SN12C renal, 11.9 µM. For the same compound, the GI50 in the experiment on DU-145 prostate is 11.8 µM; in the experiment on M14 melanoma, 17.6 µM. In addition, the TGI in the experiment on A498 renal was 0.0457 µM; in the experiment on ACHN renal it was 29.4 µM; with HT29 colon, 16 µM; in the experiment on OVCAR-5 ovarian, 0.106 µM; with COLO 205 colon, 6.13 µM; in the experiment on OVCAR-3 ovarian it was 0.297 µM. In addition, the TGI in the experiment with SN12C renal worked out at 25 µM; in the experiment on DU-145 prostate it was 24.9 µM; in the experiment with M14 melanoma it was 35.9 µM.

Take `O=C1CSC(c2c[nH]c3ccccc23)N1c1ccc(Cl)cc1Cl` (stereo not given): the TGI in the experiment on IGROV1 ovarian, in the experiment with HT29 colon, in the experiment on OVCAR-5 ovarian, with COLO 205 colon, in the experiment with OVCAR-3 ovarian and with SN12C renal was over 100 µM each time. Moreover, the TGI in the experiment on DU-145 prostate and in the experiment with M14 melanoma was over 100 µM each time.

With `COc1cc2c3c(n(CCCNCCCN)c(=O)c2cc1OC)-c1cc2c(cc1C3=O)OCO2`, the GI50 in the experiment with A498 renal is 18 µM; in the experiment on ACHN renal it was 3.14 µM; in the experiment with IGROV1 ovarian it was 2.69 µM; in the experiment with HT29 colon it was 1.7 µM; with OVCAR-5 ovarian, 2.94 µM; in the experiment with OVCAR-3 ovarian, 3.08 µM. The figures for the GI50 in the experiment on SN12C renal, in the experiment on DU-145 prostate and with M14 melanoma were 2.34 µM, 3.08 µM and 4.65 µM, respectively. The TGI came to 35.6 µM in the experiment on A498 renal; 13.7 µM with ACHN renal; 18.9 µM with IGROV1 ovarian; 13.6 µM with HT29 colon; 12.6 µM with OVCAR-5 ovarian; 11.7 µM in the experiment with OVCAR-3 ovarian. For the same compound, the TGI with SN12C renal came out at 13.3 µM; with DU-145 prostate, 13.4 µM; with M14 melanoma, 16.7 µM.

In the case of `CC(C)(C)OC(=O)N[C@@H](Cc1ccccc1)C(=O)N(Cc1ccccc1)C1(C(=O)NCc2ccccc2)CCN(Cc2ccccc2)CC1`, the GI50 in the experiment with A498 renal was 1.43 µM; in the experiment on IGROV1 ovarian it was 5.7 µM; in the experiment with HT29 colon, 2.16 µM; in the experiment on COLO 205 colon, 1.65 µM; with OVCAR-3 ovarian, 3.95 µM; in the experiment on SN12C renal, 3.45 µM. Also, the GI50 in the experiment with DU-145 prostate is 5.38 µM; with M14 melanoma, 2.6 µM. Besides, the TGI is 6.36 µM in the experiment on A498 renal; over 100 µM in the experiment on IGROV1 ovarian; 6.82 µM with HT29 colon; 3.32 µM in the experiment on COLO 205 colon; over 100 µM with OVCAR-3 ovarian; over 100 µM in the experiment with SN12C renal. In addition, the TGI in the experiment with DU-145 prostate is over 100 µM; in the experiment with M14 melanoma it was 44.5 µM.

For the compound `O=C1NC(c2ccccc2)C2(C(=O)O)CN(C3CC3)c3cc(N4CCNCC4)c(F)cc3C2N1` (stereo not given), the GI50 in the experiment on ACHN renal, in the experiment with IGROV1 ovarian, in the experiment on HT29 colon, with OVCAR-5 ovarian, in the experiment with COLO 205 colon and in the experiment with OVCAR-3 ovarian was over 100 µM throughout. Also, the GI50 in the experiment with SN12C renal and in the experiment with DU-145 prostate was over 100 µM in each case. In addition, the TGI in the experiment on ACHN renal, in the experiment with IGROV1 ovarian, in the experiment with HT29 colon, in the experiment on OVCAR-5 ovarian, in the experiment on COLO 205 colon and in the experiment with OVCAR-3 ovarian was over 100 µM in each case. In addition, the TGI in the experiment with SN12C renal and in the experiment with DU-145 prostate was over 100 µM in each case.

With `COc1ccc2c(c1OC)C(=O)N1C2=Cc2c(cc3c(c2OC)OCO3)CC1N(C)C` (stereo not given), the TGI with A498 renal, in the experiment on ACHN renal, in the experiment with IGROV1 ovarian, with OVCAR-5 ovarian, in the experiment on COLO 205 colon and in the experiment with OVCAR-3 ovarian was over 100 µM in each case. Also, the TGI with SN12C renal, with DU-145 prostate and in the experiment on M14 melanoma was over 100 µM in each case.

Consider `O=P(O)(O)OCC1OC(n2cnc3c(NCc4ccccc4)ncnc32)C(O)C1O` (stereo not given), for which the GI50 was 2.05 µM in the experiment with A498 renal; 1.4 µM in the experiment with ACHN renal; 3.52 µM in the experiment on IGROV1 ovarian; 2.27 µM in the experiment on HT29 colon; 3.11 µM in the experiment with OVCAR-5 ovarian; 2.37 µM in the experiment with COLO 205 colon. In addition, the GI50 was 0.691 µM in the experiment with OVCAR-3 ovarian, 0.509 µM in the experiment with SN12C renal and 2.68 µM in the experiment with M14 melanoma. The TGI with A498 renal is 7.44 µM; in the experiment on ACHN renal, over 69.1 µM; in the experiment on IGROV1 ovarian, 23 µM; in the experiment on HT29 colon it was over 36 µM; with OVCAR-5 ovarian, over 100 µM; in the experiment with COLO 205 colon, 8.53 µM. For the same compound, the figures for the TGI in the experiment on OVCAR-3 ovarian, with SN12C renal and in the experiment with M14 melanoma were 2.16 µM, over 100 µM and over 100 µM, respectively.

Turning to `O/N=C/c1ccc(O)c(O)c1`, the TGI in the experiment on A498 renal, in the experiment on ACHN renal, in the experiment with IGROV1 ovarian, with HT29 colon, with OVCAR-5 ovarian and in the experiment with COLO 205 colon was over 100 µM each time. In addition, the TGI in the experiment on OVCAR-3 ovarian, in the experiment on SN12C renal and in the experiment with M14 melanoma was over 100 µM each time.
